One data set has as its target KDR (Homo sapiens, UniProt P35968). In words: Selectivity Ki, KDR. It counts as biochemical.
Data set [1] can be described thus: Plasma protein binding, mouse. The class given is in vitro ADME. As to conditions: read-out: Plasma protein binding (% Fu) Mouse.
A further data set has as its target T1, ALK4 (Homo sapiens, UniProt P36896).
T1 sequence (P36896 24-505): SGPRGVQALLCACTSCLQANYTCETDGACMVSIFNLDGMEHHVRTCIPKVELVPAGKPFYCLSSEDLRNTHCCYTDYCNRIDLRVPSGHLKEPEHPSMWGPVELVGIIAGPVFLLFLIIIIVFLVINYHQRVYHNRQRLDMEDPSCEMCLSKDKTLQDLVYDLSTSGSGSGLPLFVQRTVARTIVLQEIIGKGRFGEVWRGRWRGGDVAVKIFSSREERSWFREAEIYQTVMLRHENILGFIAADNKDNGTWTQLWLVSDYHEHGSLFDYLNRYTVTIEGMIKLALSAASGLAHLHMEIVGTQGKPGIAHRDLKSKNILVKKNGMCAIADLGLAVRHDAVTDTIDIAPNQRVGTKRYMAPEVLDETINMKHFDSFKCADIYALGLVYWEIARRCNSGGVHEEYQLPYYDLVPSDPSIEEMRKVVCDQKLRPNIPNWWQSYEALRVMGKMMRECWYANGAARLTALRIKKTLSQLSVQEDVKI
Nature of the data set: Selectivity Ki, ALK4. The class given is biochemical.

The target of the next data set is T2, BMPR2 (Homo sapiens, UniProt Q13873).
T2 sequence (Q13873 27-1038): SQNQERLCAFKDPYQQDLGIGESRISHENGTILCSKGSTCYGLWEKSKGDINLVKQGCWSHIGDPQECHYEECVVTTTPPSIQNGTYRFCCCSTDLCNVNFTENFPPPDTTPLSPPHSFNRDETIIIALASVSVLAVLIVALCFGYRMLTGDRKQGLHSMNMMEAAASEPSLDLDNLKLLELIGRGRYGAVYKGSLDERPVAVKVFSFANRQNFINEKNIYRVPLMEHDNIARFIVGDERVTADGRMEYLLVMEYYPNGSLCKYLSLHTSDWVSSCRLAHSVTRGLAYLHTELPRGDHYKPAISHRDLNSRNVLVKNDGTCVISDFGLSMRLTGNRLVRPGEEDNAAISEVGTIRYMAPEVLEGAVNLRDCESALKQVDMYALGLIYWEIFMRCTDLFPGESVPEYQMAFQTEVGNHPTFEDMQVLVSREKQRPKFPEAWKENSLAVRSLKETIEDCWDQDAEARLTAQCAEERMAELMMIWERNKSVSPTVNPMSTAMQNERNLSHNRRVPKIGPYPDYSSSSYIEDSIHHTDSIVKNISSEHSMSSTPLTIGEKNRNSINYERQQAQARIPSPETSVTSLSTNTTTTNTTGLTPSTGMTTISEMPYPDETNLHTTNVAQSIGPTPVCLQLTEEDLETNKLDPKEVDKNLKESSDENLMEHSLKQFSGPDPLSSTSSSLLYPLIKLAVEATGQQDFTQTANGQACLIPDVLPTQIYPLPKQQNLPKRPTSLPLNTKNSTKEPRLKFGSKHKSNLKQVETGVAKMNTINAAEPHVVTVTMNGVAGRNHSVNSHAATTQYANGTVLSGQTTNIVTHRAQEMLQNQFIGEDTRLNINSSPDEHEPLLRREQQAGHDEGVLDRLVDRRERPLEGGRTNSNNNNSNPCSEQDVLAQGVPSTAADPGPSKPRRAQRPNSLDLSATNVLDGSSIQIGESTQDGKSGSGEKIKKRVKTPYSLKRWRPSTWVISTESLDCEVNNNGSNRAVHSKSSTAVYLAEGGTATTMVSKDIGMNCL
In words: Selectivity Ki, BMPR2. It counts as biochemical.

The next data set deals with T3, ALK2 (Homo sapiens, UniProt Q04771).
T3 sequence (Q04771 21-509): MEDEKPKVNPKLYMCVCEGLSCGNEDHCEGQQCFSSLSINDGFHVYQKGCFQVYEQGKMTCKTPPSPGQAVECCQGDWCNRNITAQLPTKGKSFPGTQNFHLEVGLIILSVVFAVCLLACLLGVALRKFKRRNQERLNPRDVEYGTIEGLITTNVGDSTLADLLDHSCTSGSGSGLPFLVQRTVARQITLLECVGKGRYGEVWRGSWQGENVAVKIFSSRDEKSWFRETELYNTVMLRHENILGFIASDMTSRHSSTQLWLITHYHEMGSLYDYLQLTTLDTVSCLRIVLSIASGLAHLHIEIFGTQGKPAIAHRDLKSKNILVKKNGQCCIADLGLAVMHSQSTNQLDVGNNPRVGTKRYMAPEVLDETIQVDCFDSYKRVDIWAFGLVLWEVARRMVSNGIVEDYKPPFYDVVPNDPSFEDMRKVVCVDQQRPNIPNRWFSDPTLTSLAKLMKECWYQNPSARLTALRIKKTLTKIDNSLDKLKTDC
Nature of the data set: Selectivity Ki, ALK2. It counts as biochemical.

A further data set has as its target ALK1 (Homo sapiens, UniProt P37023). Nature of the data set: Selectivity Ki, ALK1. It counts as biochemical.
In the next data set the target is ALK6 (Homo sapiens, UniProt O00238). In words: Selectivity Ki, ALK6. It counts as biochemical.
Data set [2] is described as follows: Plasma protein binding, human. Conditions: read-out: Plasma protein binding (% Fu) Human. The class given is in vitro ADME.
In a further data set the target is TGFβR2 (Homo sapiens, UniProt P37173). In words: Selectivity Ki, TGFβR2. It counts as biochemical.
The subject of a further data set is BMP4. In words: BMP4 biological assay (Table 3). It counts as cell-based.
In the next data set the target is AMPK. In words: Selectivity Ki, AMPK. It counts as biochemical.
In the next data set the target is T4, ALK5 (Homo sapiens, UniProt P36897).
T4 sequence (P36897 34-503): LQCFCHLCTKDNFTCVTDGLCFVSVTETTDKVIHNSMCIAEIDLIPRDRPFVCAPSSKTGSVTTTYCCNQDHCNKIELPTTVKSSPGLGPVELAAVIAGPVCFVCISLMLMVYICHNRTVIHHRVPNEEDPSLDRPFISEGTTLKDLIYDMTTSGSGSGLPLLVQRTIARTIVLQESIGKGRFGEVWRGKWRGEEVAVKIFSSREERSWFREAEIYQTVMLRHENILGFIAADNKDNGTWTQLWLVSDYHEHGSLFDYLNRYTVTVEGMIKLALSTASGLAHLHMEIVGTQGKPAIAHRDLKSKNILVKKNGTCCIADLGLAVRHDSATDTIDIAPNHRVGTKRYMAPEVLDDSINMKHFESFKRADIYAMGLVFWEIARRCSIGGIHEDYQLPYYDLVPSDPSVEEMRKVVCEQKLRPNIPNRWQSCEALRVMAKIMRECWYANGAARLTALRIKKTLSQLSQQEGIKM
Nature of the data set: Selectivity Ki, ALK5. It counts as biochemical.

Data set [3] deals with Hepcidin expression. Nature of the data set: In vitro model of Hepcidin expression (HAMP/HPRT1, alone and with BMP-6). It counts as cell-based. Conditions: as compared to control (FIGS. 6-9).
Data set [4] has as its system hepcidin expression. In words: IRIDA animal model, liver hepcidin mRNA 2 hours after injection. As to conditions: Tmprss6−/− mice, 2 hours after injecting (FIG. 13). It counts as in vivo. Here is the method: The efficacy of compounds was shown in an IRIDA animal model. Initially, an exemplary dose and time point was determined in wild type mice. Briefly, liver mRNA and proteins were extracted. Hepcidin and Id1 mRNA expression was measured by real-time PCR and Smad 1-5-8 phosphorylation was assayed by Western blot analysis. FIGS. 10A-10D depict the RT-PCR data for various inflammatory markers in the liver. FIGS. 11A and 11B depict the RT-PCR data for Hamp mRNA and Id1 mRNA expression. FIG. 12A-12C depict the results of the Western blot analysis.

The nature of data set [5]: In vitro DMPK intrinsic clearance, human. It counts as in vitro ADME.
Data set [6] in a line: In vitro DMPK intrinsic clearance, mouse. The class given is in vitro ADME.
In another data set the target is ALK3 (Homo sapiens, UniProt P36894). Nature of the data set: Selectivity Ki, ALK3. The class given is biochemical.
Data set [7] in a line: Plasma protein binding, rat. It counts as in vitro ADME. As to conditions: read-out: Plasma protein binding (% Fu) Rat.
Data set [8] in a line: In vitro DMPK intrinsic clearance, rat. It counts as in vitro ADME.
The mark [9] stands for this setting: read-out: Intrinsic clearance hCLHEP.
[10] abbreviates: read-out: Intrinsic clearance hCLINT.

ALK3, sequence (P36894 24-532, species assumed): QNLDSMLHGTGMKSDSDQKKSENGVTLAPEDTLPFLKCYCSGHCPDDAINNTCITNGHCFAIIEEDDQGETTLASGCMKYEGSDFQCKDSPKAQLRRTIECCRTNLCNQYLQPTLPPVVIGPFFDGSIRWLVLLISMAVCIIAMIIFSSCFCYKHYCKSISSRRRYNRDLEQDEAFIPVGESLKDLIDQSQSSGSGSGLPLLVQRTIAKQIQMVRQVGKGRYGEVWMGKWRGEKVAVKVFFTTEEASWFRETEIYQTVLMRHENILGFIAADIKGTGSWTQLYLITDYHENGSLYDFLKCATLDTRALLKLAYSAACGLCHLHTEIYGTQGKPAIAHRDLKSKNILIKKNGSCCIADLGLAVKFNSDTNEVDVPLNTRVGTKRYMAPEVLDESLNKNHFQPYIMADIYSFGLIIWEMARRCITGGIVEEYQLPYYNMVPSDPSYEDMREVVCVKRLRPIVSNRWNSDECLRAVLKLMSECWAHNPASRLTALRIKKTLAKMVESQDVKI
ALK1, sequence (P37023 22-503, species assumed): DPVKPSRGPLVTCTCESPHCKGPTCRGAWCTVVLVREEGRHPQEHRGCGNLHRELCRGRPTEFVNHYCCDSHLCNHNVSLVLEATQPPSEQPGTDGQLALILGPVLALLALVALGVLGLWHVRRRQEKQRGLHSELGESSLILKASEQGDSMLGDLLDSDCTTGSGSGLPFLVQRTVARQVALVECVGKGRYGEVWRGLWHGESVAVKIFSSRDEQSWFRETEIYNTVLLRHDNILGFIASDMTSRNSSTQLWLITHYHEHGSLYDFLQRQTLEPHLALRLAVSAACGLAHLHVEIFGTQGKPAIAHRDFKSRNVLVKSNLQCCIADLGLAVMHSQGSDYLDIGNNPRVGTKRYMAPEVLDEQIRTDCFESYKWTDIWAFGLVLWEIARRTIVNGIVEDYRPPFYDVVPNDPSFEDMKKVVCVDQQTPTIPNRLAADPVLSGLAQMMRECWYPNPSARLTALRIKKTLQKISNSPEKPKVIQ
ALK6, sequence (O00238 14-502): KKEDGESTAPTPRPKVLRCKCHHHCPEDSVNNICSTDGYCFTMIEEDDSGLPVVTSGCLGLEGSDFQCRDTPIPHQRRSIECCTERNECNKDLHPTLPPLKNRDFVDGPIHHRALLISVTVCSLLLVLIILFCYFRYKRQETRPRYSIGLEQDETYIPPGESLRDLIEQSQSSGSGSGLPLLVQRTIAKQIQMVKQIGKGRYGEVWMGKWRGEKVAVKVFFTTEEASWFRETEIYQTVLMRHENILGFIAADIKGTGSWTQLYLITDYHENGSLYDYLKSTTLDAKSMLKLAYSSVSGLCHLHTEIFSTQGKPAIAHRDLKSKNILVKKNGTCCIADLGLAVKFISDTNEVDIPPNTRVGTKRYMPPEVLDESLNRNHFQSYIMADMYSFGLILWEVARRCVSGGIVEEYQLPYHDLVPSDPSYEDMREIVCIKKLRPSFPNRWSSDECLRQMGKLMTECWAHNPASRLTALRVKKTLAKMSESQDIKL
KDR, sequence (P35968 20-1356, species assumed): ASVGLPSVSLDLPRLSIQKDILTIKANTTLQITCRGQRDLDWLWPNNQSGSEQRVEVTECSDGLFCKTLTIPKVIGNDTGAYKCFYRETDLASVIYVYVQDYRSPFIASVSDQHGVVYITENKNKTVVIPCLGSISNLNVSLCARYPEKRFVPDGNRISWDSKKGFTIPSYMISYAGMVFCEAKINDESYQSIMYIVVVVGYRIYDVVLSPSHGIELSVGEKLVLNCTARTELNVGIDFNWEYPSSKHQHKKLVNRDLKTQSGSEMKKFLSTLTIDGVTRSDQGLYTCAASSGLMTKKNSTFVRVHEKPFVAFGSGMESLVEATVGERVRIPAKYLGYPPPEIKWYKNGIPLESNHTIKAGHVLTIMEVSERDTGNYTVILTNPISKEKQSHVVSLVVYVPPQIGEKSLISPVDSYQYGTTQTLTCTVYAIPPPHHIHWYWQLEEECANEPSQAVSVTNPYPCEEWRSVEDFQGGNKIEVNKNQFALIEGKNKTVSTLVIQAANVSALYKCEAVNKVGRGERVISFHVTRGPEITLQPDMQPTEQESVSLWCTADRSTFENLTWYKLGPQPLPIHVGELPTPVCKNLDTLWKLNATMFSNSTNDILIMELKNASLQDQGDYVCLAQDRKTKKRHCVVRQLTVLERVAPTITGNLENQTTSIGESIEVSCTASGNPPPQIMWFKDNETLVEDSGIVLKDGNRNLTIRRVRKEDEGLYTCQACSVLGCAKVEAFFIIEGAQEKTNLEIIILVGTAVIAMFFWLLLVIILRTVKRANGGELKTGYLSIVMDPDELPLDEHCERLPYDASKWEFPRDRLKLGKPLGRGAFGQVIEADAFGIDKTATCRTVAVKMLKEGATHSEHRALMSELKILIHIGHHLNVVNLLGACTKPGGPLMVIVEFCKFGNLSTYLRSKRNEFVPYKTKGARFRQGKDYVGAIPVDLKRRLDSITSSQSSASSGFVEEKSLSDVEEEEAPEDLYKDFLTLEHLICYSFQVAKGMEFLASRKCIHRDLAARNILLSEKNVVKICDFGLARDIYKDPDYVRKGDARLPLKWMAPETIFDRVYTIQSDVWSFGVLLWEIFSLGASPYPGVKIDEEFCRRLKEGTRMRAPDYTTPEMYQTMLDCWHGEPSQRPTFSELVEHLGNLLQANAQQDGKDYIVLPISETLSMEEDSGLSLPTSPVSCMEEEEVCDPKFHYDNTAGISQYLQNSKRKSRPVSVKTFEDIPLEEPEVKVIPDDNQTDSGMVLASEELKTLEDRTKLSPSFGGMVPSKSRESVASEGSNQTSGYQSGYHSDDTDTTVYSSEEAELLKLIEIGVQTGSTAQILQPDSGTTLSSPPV
TGFβR2, sequence (P37173 23-567): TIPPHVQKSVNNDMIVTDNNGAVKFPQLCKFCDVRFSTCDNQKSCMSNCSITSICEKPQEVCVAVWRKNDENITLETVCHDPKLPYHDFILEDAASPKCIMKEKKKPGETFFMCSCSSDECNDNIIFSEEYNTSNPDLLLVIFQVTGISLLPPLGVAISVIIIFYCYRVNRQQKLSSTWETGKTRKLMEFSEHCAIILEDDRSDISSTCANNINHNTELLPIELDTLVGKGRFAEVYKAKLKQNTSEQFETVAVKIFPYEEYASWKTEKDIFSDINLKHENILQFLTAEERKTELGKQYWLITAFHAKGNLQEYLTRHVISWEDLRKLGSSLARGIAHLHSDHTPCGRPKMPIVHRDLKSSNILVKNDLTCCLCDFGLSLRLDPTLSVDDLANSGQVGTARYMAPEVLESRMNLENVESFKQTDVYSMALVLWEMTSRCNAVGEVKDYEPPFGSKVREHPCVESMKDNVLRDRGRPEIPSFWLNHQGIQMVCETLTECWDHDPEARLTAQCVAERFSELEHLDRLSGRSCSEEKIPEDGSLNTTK

For the compound `COc1ccc2nc(C)cc(-c3cnc4cc(-c5ccc(N6CCN(C(C)=O)CC6)cc5)ccn34)c2c1` [Compound 48], the Ki was 8.73 µM on KDR; 0.144 µM on ALK4; over 30 µM at BMPR2; 0.338 µM on ALK2; 4.28 µM on ALK1; 0.965 µM on ALK6. In addition, the inhibition constant Ki at TGFβR2 is 0.196 µM; on AMPK it was 8.7 µM; at ALK5, 0.319 µM; at ALK3 it was under 0.0051 µM. The fraction unbound turned out to be 0.058 in data set [1] and 0.012 in [2]. Moreover, the IC50 in the data set with BMP4 is 0.185 µM. In addition, the Hepcidin expression entry with Hepcidin expression [3] was “reduced Hepcidin expression as compared to control”. The “Liver hepcidin mRNA expression” value in the data set with hepcidin expression [4] was “reduction of hepcidin expression”. In addition, the CLint scaled in data set [5] (setting [9]) came out at 19.6 mL/min/kg; in data set [5] (setting [10]) it was 294 mL/min/kg; in data set [6] (read-out: Intrinsic clearance mCLHEP), 71.5 mL/min/kg; in [6] (read-out: Intrinsic clearance mCLINT), 349 mL/min/kg.
Turning to `Cc1cc(-c2cnc3cc(-c4ccc(C5CCN(C(C)C)CC5)cc4)ccn23)c2cc(F)ccc2n1` [Compound 168], the fraction unbound in [1] was found to be 0.009; in data set [7], 0.014; in [2], 0.021. The Ki on ALK2 came to 0.0072 µM; at ALK1 it was 0.179 µM; at ALK3, 0.0346 µM. The compound further registered an IC50 with BMP4 of 0.392 µM. The CLint scaled came out at 14.5 mL/min/kg in data set [8] (read-out: Intrinsic clearance rCLHEP), 18.2 mL/min/kg in [8] (read-out: Intrinsic clearance rCLINT), 6.1 mL/min/kg in data set [5] (setting [9]) and 8.6 mL/min/kg in data set [5] (setting [10]).

As a reminder, the Ki is the dissociation constant of the complex between target and ligand, obtained from inhibition or displacement. What is called IC50 is the point on the concentration scale where inhibition reaches its midpoint.

Values taken from patent US20190218214A1, “Inhibition of BMP Signaling Compounds, Compositions and Uses Thereof” (Vanderbilt University, priority 2016, published 2019).
